In general, EC50 refers to the concentration that produces a half-maximal response.

The subject of this experiment is Cell Necrosis. The experiment in a line: Cell necrosis assay / cell viability assay (necrosis inhibitor activity). The experiment is classed as cell-based. To be noted: necrosis inhibitor activity; compounds outside 14-191; read-out: EC50.
With `O=C1CCc2ccc(OC3CN(C(=O)N4N=CC[C@H]4c4cc(F)cc(F)c4)C3)cc2N1` [Compound 206, (S)-7-((1-(5-(3,5-difluorophenyl)-4,5-dihydro-1H-pyrazole-1-carbonyl)azetidin-3-yl)oxy)-3,4-dihydroquinolin-2(1H)-one], the concentration for a half-maximal effect (EC50) is 0.001 to 1 µM.

As to `O=C(N1CC(Oc2ccc3cn[nH]c3c2)C1)N1N=CC[C@H]1c1cc(F)cc(F)c1` [Compound 207], the EC50 was 0.001 to 1 µM.

Regarding `O=C(N1CC(Oc2ccc3ccc(=O)[nH]c3c2F)C1)N1N=CC[C@H]1c1cc(F)cc(F)c1` [Compound 208, (S)-7-((1(5-(3,5-difluorophenyl)-4,5-dihydro-1H-pyrazole-1-carbonyl)azetidin-3-yl)oxy)-8-fluoroquinolin-2(1H)-one], the EC50 fell in the range of 0.001 to 1 µM.

In the case of `O=C1Cc2ccc(OC3CN(C(=O)N4N=CC[C@H]4c4cc(F)cc(F)c4)C3)cc2N1` [Compound 209, (S)-6-((1-(5-(3,5-difluorophenyl)-4,5-dihydro-1H-pyrazole-1-carbonyl)azetidin-3-yl)oxy)indolin-2-one], the EC50 is 0.001 to 1 µM.

Turning to `O=C(N1CC(Oc2ncc(F)cc2F)C1)N1N=CCC1c1cc(F)cc(F)c1` (centres unmarked) [Compound 210, (5-(3,5-difluorophenyl)-4,5-dihydro-1H-pyrazol-1-yl)(3-((3,5-difluoropyridin-2-yl)oxy)azetidin-1-)methanone], the EC50 lay within 0.001 to 1 µM.

Regarding `O=C(N1CC(Oc2ccc(OCc3ccccc3)nc2)C1)N1N=CCC1c1cc(F)cc(F)c1` (centres unmarked) [Compound 211, (3-((6-(benzyloxy)pyridin-3-yl)oxy)azetidin-1-yl)(5-(3,5-difluorophenyl)-4,5-dihydro-1H-pyrazol-1-yl)methanone], the EC50 was in the range of 0.001 to 1 µM.

As to `O=C(N1CC(Oc2ccc(F)cn2)C1)N1N=CCC1c1cc(F)cc(F)c1` (centres unmarked) [Compound 212, (5-(3,5-difluorophenyl)-4,5-dihydro-1H-pyrazol-1-yl)(3-((5-fluoropyridin-2-yl)oxy)azetidin-1-yl)methanone], the EC50 fell in the range of 0.001 to 1 µM.

In the case of `O=C(N1CC(Oc2ccc(F)cc2F)C1)N1N=CCC1c1cncc(F)c1` (centres unmarked) [Compound 213, (3-(2,4-difluorophenoxy)114zetidine-1-yl)(5-(5-fluoropyridin-3-yl)-4,5-dihydro-1H-pyrazol-1-yl)methanone], the half-maximal effective concentration (EC50) fell in the range of 0.001 to 1 µM.

On to `O=C(N1CC(Oc2ccc(OCc3ccccc3)cc2)C1)N1N=CC[C@H]1c1cc(F)cc(F)c1` [Compound 214, (S)-(3-(4-(benzyloxy)phenoxy)zetidine-1-yl)(5-(3,5-difluorophenyl)-4,5-dihydro-1H-pyrazol-1-yl)methanone], for which the concentration for a half-maximal effect (EC50) lay within 0.001 to 1 µM.

As for `N#Cc1cc(OC2CN(C(=O)N3N=CC[C@H]3c3cc(F)cc(F)c3)C2)ncn1` [Compound 215, (S)-6-((1-(5-(3,5-difluorophenyl)-4,5-dihydro-1H-pyrazole-1-carbonyl)115zetidine-3-yl)oxy)pyrimidine-4-carbonitrile], the 50% effective concentration (EC50) is 0.001 to 1 µM.

`O=C(N1CC(Oc2ccc3occc3c2)C1)N1N=CCC1c1cc(F)cc(F)c1` (centres unmarked) [Compound 216, (3-(benzofuran-5-yloxy)115zetidine-1-yl)(5-(3,5-difluorophenyl)-4,5-dihydro-1H-pyrazol-1-yl)methanone]: the EC50 lay within 0.001 to 1 µM.

With `O=C(N1CC(Oc2ccc(O)nc2)C1)N1N=CCC1c1cc(F)cc(F)c1` (centres unmarked) [Compound 217, (5-(3,5-difluorophenyl)-4,5-dihydro-1H-pyrazol-1-yl)(3-((6-hydroxypyridin-3-yl)oxy)115zetidine-1-yl)methanone], the EC50 was 0.001 to 1 µM.

With `CNC(=O)c1ccc(OC2CN(C(=O)N3N=CC[C@H]3c3cc(F)cc(F)c3)C2)cc1` [Compound 218, (S)-4-((1-(5-(3,5-difluorophenyl)-4,5-dihydro-1H-pyrazole-1-carbonyl)azetidin-3-yl)oxy)-N-methylbenzamide], the EC50 lay in the range of 0.001 to 1 µM.

Turning to `O=C(N1CC(Oc2ccc(-c3ncc[nH]3)cc2)C1)N1N=CC[C@H]1c1cc(F)cc(F)c1` [Compound 219, (S)-(3-(4-(1H-imidazol-2-yl)phenoxy)azetidin-1-yl)(5-(3,5-difluorophenyl)-4,5-dihydro-1H-pyrazol-1-yl)methanone], the EC50 fell in the range of 0.001 to 1 µM.

Source of the values: US12662469B2 (SIRONAX LTD, priority 2018, dated 2026).
